Molecular target: T1, human PD-L1 / human PD-1 interaction (Homo sapiens, UniProt Q9NZQ7)
T1 construct: purchased R&D (PD-L1); ACRO Biosystems (PD-1, biotin)
Test: ELISA of PD-1/PD-L1 interaction
Type: binding
Description: The activity of Compound 1.041 was assessed with an ELISA assay assessing the direct binding of recombinant PD-1 and PD-L1 proteins (FIG. 1A), a dimerization ELISA assay assessing the direct binding/dimerization of recombinant PD-L1 proteins (FIG. 1B), a cell based assay measuring the downstream signaling following the interaction of PD-1 and PD-L1 using a Luciferase reporter assay with cell lines overexpressing PD-1 and PD-L1 (FIG. 1C), and a mixed lymphocyte reaction assay measuring the functional outcome of upregulation of IFNg secretion, using allogenic primary human immune cells (FIG. 1D). Briefly, the mixed lymophocyte reaction assay was performed as follows: Dendritic cells and CD4+T Cells from unmatched donors were cultured together for 5 days in 96 well-flat bottom plates. Test compound was added as indicated at starting concentration of 1 μM with 1:4 dilutions with DMSO. Supernatants were harvested after 5 days of incubation and detection of human IFNg was performed by ELISA. […]
96 Well plates were coated with 1 μg/mL of human PD-L1 (obtained from R&D) in
PBS overnight at 4° C. The wells were then blocked with 2% BSA in PBS (WN) with 0.05% TWEEN-20 for 1 hour at 37° C. The plates were washed 3 times with PBS/0.05% TWEEN-20 and the compounds were serial diluted (1:5) in dilution medium and added to the ELISA plates. Human PD-1 and biotin 0.3μg/mL (ACRO Biosystems) were added and incubated for 1 hour at 37° C. then washed 3 times with PBS/0.05% TWEEN-20. A second block was performed with 2% BSA in PBS (WN)/0.05% TWEEN-20 for 10 min at 37° C. and was washed 3 times with PBS/0.05% TWEEN-20. Streptavidin—HRP was added for 1 hour at 37° C. then washed 3 times with PBS/0.05% TWEEN-20. TMB substrate was added and reacted for 20 min at 37° C. A stop solution (2 N aqueous H2SO4) was added. The absorbance was read at 450 nm using a micro-plate spectrophotometer.

T1 sequence (Q9NZQ7 19-239 limits assumed): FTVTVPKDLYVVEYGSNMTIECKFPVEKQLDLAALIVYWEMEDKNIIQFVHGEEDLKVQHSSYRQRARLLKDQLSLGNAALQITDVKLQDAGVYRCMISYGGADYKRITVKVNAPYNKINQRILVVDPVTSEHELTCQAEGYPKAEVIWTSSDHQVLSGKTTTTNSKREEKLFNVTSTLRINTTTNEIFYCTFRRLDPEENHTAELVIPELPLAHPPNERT

IC50, < 5 nM:
CCOc1cc(O[C@H]2CCc3c(-c4cccc(OCCCN5CC[C@@H](O)C5)c4C)cccc32)c(Cl)cc1CNC(C)(CO)C(=O)O (stereo partly drawn), Cc1c(OCCCN2CCC[C@@H](O)C2)cccc1-c1cccc2c1CC[C@@H]2Oc1cc(OCc2cncc(C#N)c2)c(CN[C@H](C(=O)O)[C@@H](C)O)cc1Cl, Cc1c(OCCCN2CCC[C@H](O)C2)cccc1-c1cccc2c1CC[C@@H]2Oc1cc(OCc2cncc(C#N)c2)c(CN[C@H](C(=O)O)[C@@H](C)O)cc1Cl, Cc1c(OCCCN2CCC(O)CC2)cccc1-c1cccc2c1CC[C@@H]2Oc1cc(OCc2cc(C#N)cc(C#N)c2)c(CN[C@@](C)(CO)C(=O)O)cc1Cl, Cc1c(OCCCN2CC[C@@H](O)C2)cccc1-c1cccc2c1CC[C@@H]2Oc1cc(OCc2cncc(C#N)c2)c(CN[C@H](C(=O)O)[C@@H](C)O)cc1Cl, CC(CO)(NCc1cc(Cl)c(O[C@H]2CCc3c(-c4cccc(OCCCN5CC6(CC(O)C6)C5)c4Cl)cccc32)cc1OCc1cncc(C#N)c1)C(=O)O (stereo partly drawn), CC(CO)(NCc1cc(Cl)c(O[C@H]2CCc3c(-c4cccc(OCCCN5CC6(CC(F)C6)C5)c4Cl)cccc32)cc1OCc1cncc(C#N)c1)C(=O)O (stereo partly drawn), N#Cc1cncc(COc2cc(O[C@H]3CCc4c(-c5cccc(OCCCN6CC(O)C6)c5Cl)cccc43)c(Cl)cc2CN2CCCC3(C2)NC(=O)NC3=O)c1 (stereo partly drawn), N#Cc1cncc(COc2cc(O[C@H]3CCc4c(-c5cccc(OCCCN6CC(O)C6)c5Cl)cccc43)c(Cl)cc2CN[C@@H]2CCCC[C@@H]2O)c1, N#Cc1cncc(COc2cc(O[C@H]3CCc4c(-c5cccc(OCCCN6CCC(F)CC6)c5Cl)cccc43)c(Cl)cc2CNC[C@@H]2CCC(=O)N2)c1, C[C@@H](O)[C@H](NCc1cc(Cl)c(O[C@H]2CCc3c(-c4cccc(OCCCN5CC(O)C5)c4Cl)cccc32)cc1OCc1cncc(C#N)c1)C(=O)NS(C)(=O)=O, N#Cc1cncc(COc2cc(O[C@H]3CCc4c(-c5cccc(OCCCN6CC(O)C6)c5Cl)cccc43)c(Cl)cc2CN2CC(O)C2)c1, N#Cc1cncc(COc2cc(O[C@H]3CCc4c(-c5cccc(OCCCN6CC(O)C6)c5Cl)cccc43)c(Cl)cc2CN2CCC(O)CC2)c1, C[C@@H](O)[C@H](NCc1cc(Cl)c(O[C@H]2CCc3c(-c4cccc(OCCCN5CC(O)C5)c4Cl)cccc32)cc1OCc1cncc(C#N)c1)C(N)=O, Cc1c(OCCCN2CCC(F)CC2)cccc1-c1cccc2c1CC[C@@H]2Oc1cc(OCc2cncc(C#N)c2)c(CNC[C@@H]2CCC(=O)N2)cc1Cl, N#Cc1cncc(COc2cc(O[C@H]3CCc4c(-c5cccc(OCCCN6CC(O)C6)c5Cl)cccc43)c(Cl)cc2CN2CC[C@@H](O)C2)c1, N#Cc1cncc(COc2cc(O[C@H]3CCc4c(-c5cccc(OCCCN6CC(O)C6)c5Cl)cccc43)c(Cl)cc2CNC[C@@H]2CCC(=O)N2)c1, N#Cc1cncc(COc2cc(O[C@H]3CCc4c(-c5cccc(OCCCN6CC(O)C6)c5Cl)cccc43)c(Cl)cc2CN2CC3(CC(O)C3)C2)c1, CC(C)(O)CNCc1cc(Cl)c(O[C@H]2CCc3c(-c4cccc(OCCCN5CC(O)C5)c4Cl)cccc32)cc1OCc1cncc(C#N)c1, C[C@@H](O)[C@H](NCc1cc(Cl)c(O[C@H]2CCc3c(-c4cccc(OCCCN5CC(O)C5)c4Cl)cccc32)cc1OCc1cncc(C#N)c1)C(=O)O, N#Cc1cncc(COc2cc(O[C@H]3CCc4c(-c5cccc(OCCCN6CC(O)C6)c5Cl)cccc43)c(Cl)cc2CNCC(=O)O)c1, CCCC(CO)(NCc1cc(Cl)c(O[C@H]2CCc3c(-c4cccc(OCCCN5CC(O)C5)c4Cl)cccc32)cc1OCc1cncc(C#N)c1)C(=O)O (stereo partly drawn), Cc1c(OCCCN2CCC(F)CC2)cccc1-c1cccc2c1CC[C@@H]2Oc1cc(OCc2cncc(C#N)c2)c(CNC[C@H]2CCC(=O)N2)cc1Cl, N#Cc1cncc(COc2cc(O[C@H]3CCc4c(-c5cccc(OCCCN6CCC(O)CC6)c5Cl)cccc43)c(Cl)cc2CNC[C@@H]2CCC(=O)N2)c1, N#Cc1cncc(COc2cc(O[C@H]3CCc4c(-c5cccc(OCCCN6CCC(O)CC6)c5Cl)cccc43)c(Cl)cc2CNC[C@H]2CCC(=O)N2)c1, N#Cc1cncc(COc2cc(O[C@H]3CCc4c(-c5cccc(OCCCN6CCC(F)CC6)c5Cl)cccc43)c(Cl)cc2CNC[C@H]2CCC(=O)N2)c1, N#Cc1cncc(COc2cc(O[C@H]3CCc4c(-c5cccc(OCCCN6CCC(F)CC6)c5Cl)cccc43)c(Cl)cc2CN2CC[C@@H](O)C2)c1, N#Cc1cncc(COc2cc(O[C@H]3CCc4c(-c5cccc(OCCCN6CCC(F)CC6)c5Cl)cccc43)c(Cl)cc2CN2CC[C@@H](F)C2)c1, CC1(O)CN(Cc2cc(Cl)c(O[C@H]3CCc4c(-c5cccc(OCCCN6CCC(F)CC6)c5Cl)cccc43)cc2OCc2cncc(C#N)c2)C1, CC1(O)CCN(Cc2cc(Cl)c(O[C@H]3CCc4c(-c5cccc(OCCCN6CCC(F)CC6)c5Cl)cccc43)cc2OCc2cncc(C#N)c2)CC1, N#Cc1cncc(COc2cc(O[C@H]3CCc4c(-c5cccc(OCCCN6CC7(CC(O)C7)C6)c5Cl)cccc43)c(Cl)cc2CNC[C@@H]2CCC(=O)N2)c1, N#Cc1cncc(COc2cc(O[C@H]3CCc4c(-c5cccc(OCCCN6CC7(CC(O)C7)C6)c5Cl)cccc43)c(Cl)cc2CNC[C@H]2CCC(=O)N2)c1, N#Cc1cncc(COc2cc(O[C@H]3CCc4c(-c5cccc(OCCCN6CC7(CC(O)C7)C6)c5Cl)cccc43)c(Cl)cc2CN[C@@H]2CCCC[C@@H]2O)c1, N#Cc1cncc(COc2cc(O[C@H]3CCc4c(-c5cccc(OCCCN6CCCCC6)c5Cl)cccc43)c(Cl)cc2CNC[C@H]2CCC(=O)N2)c1, N#Cc1cncc(COc2cc(O[C@H]3CCc4c(-c5cccc(OCCCN6CCCCC6)c5Cl)cccc43)c(Cl)cc2CNC[C@@H]2CCC(=O)N2)c1, N#Cc1cncc(COc2cc(O[C@H]3CCc4c(-c5cccc(OCCCN6CCCCC6)c5Cl)cccc43)c(Cl)cc2CN[C@@H]2CCCC[C@@H]2O)c1, C[C@@H](O)[C@H](NCc1cc(Cl)c(O[C@H]2CCc3c(-c4cccc(OCCCN5CCCCC5)c4Cl)cccc32)cc1OCc1cncc(C#N)c1)C(=O)NS(C)(=O)=O, N#Cc1cncc(COc2cc(O[C@H]3CCc4c(-c5cccc(OCCCN6CCC(F)CC6)c5Cl)cccc43)c(Cl)cc2CN[C@@H]2CCC[C@@H]2O)c1, N#Cc1cncc(COc2cc(O[C@H]3CCc4c(-c5cccc(OCCCN6CCC(F)CC6)c5Cl)cccc43)c(Cl)cc2CN[C@@H]2CCC[C@H]2O)c1, C[C@@](CO)(NCc1cc(Cl)c(O[C@H]2CCc3c(-c4cccc(OCCCN)c4Cl)cccc32)cc1OCc1cncc(C#N)c1)C(=O)O, CC1(C)CC(O)CCN1CCCOc1cccc(-c2cccc3c2CC[C@@H]3Oc2cc(OCc3cncc(C#N)c3)c(CN[C@@H]3CCCC[C@@H]3O)cc2Cl)c1Cl (stereo partly drawn), CC1(F)CCN(CCCOc2cccc(-c3cccc4c3CC[C@@H]4Oc3cc(OCc4cncc(C#N)c4)c(CN[C@@H]4CCCC[C@@H]4O)cc3Cl)c2Cl)CC1, C[C@@H](O)[C@H](NCc1cc(Cl)c(O[C@H]2CCc3c(-c4cccc(OCCCN5CCC(C)(F)CC5)c4Cl)cccc32)cc1OCc1cncc(C#N)c1)C(=O)NS(C)(=O)=O, CC(=O)OC1CCN(CCCOc2cccc(-c3cccc4c3CC[C@@H]4Oc3cc(OCc4cncc(C#N)c4)c(CN[C@@H]4CCCC[C@@H]4O)cc3Cl)c2Cl)CC1, N#Cc1cncc(COc2cc(O[C@H]3CCc4c(-c5cccc(OCCCN6CCC(F)CC6)c5Cl)cccc43)c(Cl)cc2CN[C@H]2CCC[C@H]2O)c1, N#Cc1cncc(COc2cc(O[C@H]3CCc4c(-c5cccc(OCCCN6CCC(F)CC6)c5Cl)cccc43)c(Cl)cc2CN[C@H]2CCC[C@@H]2O)c1, N#Cc1cncc(COc2cc(O[C@H]3CCc4c(-c5cccc(OCCCN6CCC(F)CC6)c5Cl)cccc43)c(Cl)cc2CNCC2CNC(=O)C2)c1 (stereo partly drawn), Cc1c(OCCCN2CCC(F)CC2)cccc1-c1cccc2c1CC[C@@H]2Oc1cc(OCc2cc(C#N)cc(C#N)c2)c(CNC[C@@H]2CCC(=O)N2)cc1Cl

— patent US20210236476A1, “METHODS OF TREATING CANCER WITH SMALL MOLECULE PD-L1 INHIBITORS” (CHEMOCENTRYX, INC., priority 2018, published 2021)
